Reference: ChEMBL document CHEMBL5380862, “Unsymmetrical Phosphodiesters as GPR84 Antagonists with High Blood Exposure for the Treatment of Lung Inflammation” (J Med Chem, 2023)
Calls of active or inactive are those of the source. No cut-off for these calls is given here.

Experiments:
[1] = target: T1, Alpha-1A adrenergic receptor (Homo sapiens) (UniProt P35348); test: Antagonist activity at ARalpha1A (unknown origin) expressed in HEK293 cells co-expressing Galpha16 assessed as inhibition of Phenylephrine induced calcium response upto 100 uM incubated for 10 mins by calcium mobilization assay; type: functional, cell-based
T1 sequence (whole entry): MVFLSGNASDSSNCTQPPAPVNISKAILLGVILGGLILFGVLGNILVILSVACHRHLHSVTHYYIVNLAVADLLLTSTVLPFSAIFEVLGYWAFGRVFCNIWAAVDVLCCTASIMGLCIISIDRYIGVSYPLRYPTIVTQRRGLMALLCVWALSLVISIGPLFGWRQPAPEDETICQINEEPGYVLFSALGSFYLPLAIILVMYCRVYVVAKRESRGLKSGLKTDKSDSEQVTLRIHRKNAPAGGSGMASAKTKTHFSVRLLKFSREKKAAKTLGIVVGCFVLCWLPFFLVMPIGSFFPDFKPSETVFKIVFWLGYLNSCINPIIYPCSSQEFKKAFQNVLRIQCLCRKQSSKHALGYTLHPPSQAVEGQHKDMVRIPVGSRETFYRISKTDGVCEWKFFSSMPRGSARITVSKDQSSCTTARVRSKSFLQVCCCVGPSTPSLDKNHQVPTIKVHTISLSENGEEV

[2] = Drug distribution in mouse brain at 5 mg/kg, po administered as single dose and measured after 0.5 hrs by LC-MS analysis; type: ADME, organism-based; settings: read-out: Drug uptake
[3] = AUClast in ICR mouse at 2 mg/kg, iv administered as single dose; type: ADME, organism-based; design: dose 2 mg/kg, route iv; settings: in vivo
[4] = Oral bioavailability in ICR mouse at 5 mg/kg administered as single dose; type: ADME, organism-based; settings: in vivo
[5] = target: T2, Glucose-dependent insulinotropic receptor (Homo sapiens) (UniProt Q8TDV5); test: Antagonist activity at GPR119 (unknown origin) expressed in HEK293 cells assessed as inhibition of AR231453 induced […] upto 100 uM pre-incubated for 10 mins followed by AR231453 addition and measured after 15 mins by cAMP detection assay; type: functional, cell-based; settings: time 25.0 min
T2 sequence (whole entry): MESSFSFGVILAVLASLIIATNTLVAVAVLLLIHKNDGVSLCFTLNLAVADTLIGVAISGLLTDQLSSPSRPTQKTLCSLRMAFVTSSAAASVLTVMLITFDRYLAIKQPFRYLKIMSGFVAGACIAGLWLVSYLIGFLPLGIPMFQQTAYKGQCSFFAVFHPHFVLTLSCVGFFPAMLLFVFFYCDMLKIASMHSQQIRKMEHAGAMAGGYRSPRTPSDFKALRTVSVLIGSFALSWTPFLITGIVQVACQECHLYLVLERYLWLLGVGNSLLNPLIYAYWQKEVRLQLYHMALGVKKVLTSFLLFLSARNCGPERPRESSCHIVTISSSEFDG

[6] = target: Delta-type opioid receptor (Homo sapiens) (UniProt P41143); test: Antagonist activity at DOR (unknown origin) expressed in CHO-K1 cells co-expressing Galpha16 assessed as inhibition of DPDPE induced calcium response upto 100 uM incubated for 10 mins by calcium mobilization assay; type: functional, cell-based
Sequence of Delta-type opioid receptor (Homo sapiens) (P41143 whole entry): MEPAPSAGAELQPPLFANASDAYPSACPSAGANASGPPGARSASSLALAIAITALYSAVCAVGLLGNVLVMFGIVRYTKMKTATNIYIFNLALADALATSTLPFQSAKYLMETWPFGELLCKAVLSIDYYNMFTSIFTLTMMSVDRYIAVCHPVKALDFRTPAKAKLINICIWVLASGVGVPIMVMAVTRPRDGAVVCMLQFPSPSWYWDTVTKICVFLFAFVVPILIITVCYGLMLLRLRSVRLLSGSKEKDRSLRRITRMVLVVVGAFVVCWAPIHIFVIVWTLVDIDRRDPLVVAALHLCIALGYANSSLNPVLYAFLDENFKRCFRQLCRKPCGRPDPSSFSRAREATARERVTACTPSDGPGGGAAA

inhibition [1]: inactive | concentration at 0.5 h [2]: 6.8 ng/g | AUC(0-t) [3]: 1680 ng·h/mL | bioavailability [4]: 12% | inhibition [5]: inactive | inhibition [6]: inactive
Compound: O=P([O-])(OC1=Cc2c(Cl)cccc2Sc2ccccc21)OC1=Cc2c(Cl)cccc2Sc2ccccc21.[Na+]
